Reference: the NIST ThermoML archive (doi:10.1021/je800110r)
Where “and” joins values, the source holds several entries; their conditions need not be identical. Equal values may be shown once.

Conditions: Liquid, Vibrating tube method

CCCCCCCCCC [decane]
Conditions | mass density
283.14 K, 21786 kPa | 752.1 kg/m3
283.14 K, 21835 kPa | 752.2 kg/m3
283.14 K, 21866 kPa | 752.3 kg/m3
283.14 K, 22948 kPa | 752.7 kg/m3
283.14 K, 22974 kPa | 752.9 kg/m3
283.14 K, 23083 kPa | 752.9 kg/m3
283.14 K, 24091 kPa | 753.6 kg/m3
283.14 K, 24111 kPa | 753.6 kg/m3
283.14 K, 24206 kPa | 753.6 kg/m3
283.14 K, 25452 kPa | 754.4 kg/m3
283.14 K, 27407 kPa | 755.5 kg/m3
283.14 K, 27430 kPa | 755.5 kg/m3
283.14 K, 27471 kPa | 755.7 kg/m3
283.14 K, 27497 kPa | 755.6 kg/m3
283.14 K, 27531 kPa | 755.7 kg/m3
283.14 K, 27558 kPa | 755.6 kg/m3
283.14 K, 27588 kPa | 755.8 kg/m3
283.14 K, 29091 kPa | 756.5 kg/m3
283.14 K, 29172 kPa | 756.6 kg/m3
283.14 K, 29227 kPa | 756.6 kg/m3
283.14 K, 29531 kPa | 756.9 kg/m3
283.14 K, 29628 kPa | 756.9 kg/m3
283.14 K, 29720 kPa | 756.8 kg/m3
283.14 K, 29749 kPa | 756.9 kg/m3
283.14 K, 29785 kPa | 756.9 kg/m3
283.14 K, 29818 kPa | 757 kg/m3
283.14 K, 29843 kPa | 756.9 kg/m3
283.14 K, 29867 kPa | 757.1 kg/m3
283.14 K, 29895 kPa | 757 kg/m3
283.14 K, 29928 kPa | 757.2 kg/m3
283.14 K, 29961 kPa | 757 kg/m3
283.14 K, 29990 kPa | 757.1 kg/m3
283.14 K, 30019 kPa | 757.1 kg/m3
283.14 K, 30044 kPa | 757.1 kg/m3
283.14 K, 30081 kPa | 757.1 kg/m3
283.14 K, 30115 kPa | 757.2 kg/m3
283.14 K, 30145 kPa | 757.1 kg/m3
283.14 K, 30807 kPa | 757.7 kg/m3
283.14 K, 30934 kPa | 757.6 kg/m3
283.14 K, 31526 kPa | 758 kg/m3
283.14 K, 31540 kPa | 758 kg/m3
283.14 K, 31581 kPa | 758.1 kg/m3
283.14 K, 31898 kPa | 758.1 kg/m3
283.14 K, 31921 kPa | 758.2 kg/m3
283.14 K, 31938 kPa | 758.2 kg/m3
283.14 K, 31958 kPa | 758.3 kg/m3
283.14 K, 31979 kPa | 758.2 kg/m3
283.14 K, 32000 kPa | 758.3 kg/m3
283.14 K, 32020 kPa | 758.2 kg/m3
283.14 K, 32038 kPa | 758.2 kg/m3
283.14 K, 32070 kPa | 758.2 kg/m3
283.14 K, 32106 kPa | 758.4 kg/m3
283.14 K, 32127 kPa | 758.3 kg/m3
283.14 K, 32164 kPa | 758.3 kg/m3
283.14 K, 32190 kPa | 758.4 kg/m3
283.14 K, 32578 kPa | 758.6 kg/m3
283.14 K, 33321 kPa | 759.1 kg/m3
283.14 K, 33347 kPa | 759 kg/m3
283.14 K, 33367 kPa | 759 kg/m3
283.14 K, 33396 kPa | 759 kg/m3
283.14 K, 33425 kPa | 758.9 kg/m3
283.14 K, 33445 kPa | 759 kg/m3
283.14 K, 33471 kPa | 759.1 kg/m3
283.14 K, 33494 kPa | 759.1 kg/m3
283.14 K, 33514 kPa | 759 kg/m3
283.14 K, 34282 kPa | 759.5 kg/m3
283.14 K, 34384 kPa | 759.6 kg/m3
283.14 K, 34405 kPa | 759.6 kg/m3
283.14 K, 34424 kPa | 759.7 kg/m3
283.14 K, 34465 kPa | 759.7 kg/m3
283.15 K, 312 kPa | 737.7 kg/m3 and 737.6 kg/m3
283.15 K, 314 kPa | 737.5 kg/m3
283.15 K, 361 kPa | 737.6 kg/m3
283.15 K, 417 kPa | 737.6 kg/m3
283.15 K, 446 kPa | 737.8 kg/m3
283.15 K, 603 kPa | 737.9 kg/m3
283.15 K, 1468 kPa | 738.4 kg/m3
283.15 K, 1599 kPa | 738.6 kg/m3
283.15 K, 1655 kPa | 738.6 kg/m3
283.15 K, 1727 kPa | 738.5 kg/m3
283.15 K, 1798 kPa | 738.8 kg/m3
283.15 K, 1897 kPa | 738.7 kg/m3
283.15 K, 1959 kPa | 738.9 kg/m3
283.15 K, 2028 kPa | 738.8 kg/m3
283.15 K, 2118 kPa | 738.9 kg/m3
283.15 K, 2175 kPa | 739 kg/m3
283.15 K, 2229 kPa | 739 kg/m3
283.15 K, 2291 kPa | 739.1 kg/m3
283.15 K, 2327 kPa | 739.1 kg/m3
283.15 K, 2370 kPa | 739 kg/m3
283.15 K, 2425 kPa | 739.1 kg/m3
283.15 K, 2520 kPa | 739.2 kg/m3
283.15 K, 2614 kPa | 739.3 kg/m3
283.15 K, 2634 kPa | 739.3 kg/m3
283.15 K, 2647 kPa | 739.4 kg/m3
283.15 K, 2708 kPa | 739.4 kg/m3
283.15 K, 2730 kPa | 739.4 kg/m3
283.15 K, 2749 kPa | 739.3 kg/m3
283.15 K, 2767 kPa | 739.4 kg/m3
283.15 K, 2789 kPa | 739.4 kg/m3
283.15 K, 2807 kPa | 739.5 kg/m3
283.15 K, 2822 kPa | 739.5 kg/m3
283.15 K, 2835 kPa | 739.4 kg/m3
283.15 K, 2864 kPa | 739.6 kg/m3
283.15 K, 3136 kPa | 739.7 kg/m3
283.15 K, 3226 kPa | 739.7 kg/m3
283.15 K, 3273 kPa | 739.9 kg/m3
283.15 K, 3287 kPa | 739.8 kg/m3
283.15 K, 3296 kPa | 739.8 kg/m3
283.15 K, 3307 kPa | 739.9 kg/m3
283.15 K, 3341 kPa | 739.9 kg/m3
283.15 K, 3352 kPa | 739.8 kg/m3
283.15 K, 3361 kPa | 739.8 kg/m3
283.15 K, 3373 kPa | 739.9 kg/m3
283.15 K, 3380 kPa | 740 kg/m3
283.15 K, 3390 kPa | 739.9 kg/m3
283.15 K, 3400 kPa | 739.8 kg/m3
283.15 K, 3408 kPa | 740 kg/m3
283.15 K, 3417 kPa | 739.9 kg/m3
283.15 K, 3426 kPa | 740 kg/m3
283.15 K, 3434 kPa | 739.9 kg/m3
283.15 K, 3443 kPa | 739.8 kg/m3
283.15 K, 3452 kPa | 740 kg/m3
283.15 K, 3461 kPa | 739.9 kg/m3
283.15 K, 3471 kPa | 740 kg/m3
283.15 K, 3485 kPa | 740 kg/m3
283.15 K, 3496 kPa | 739.9 kg/m3
283.15 K, 3507 kPa | 740.1 kg/m3
283.15 K, 3517 kPa | 740 kg/m3
283.15 K, 3528 kPa | 739.9 kg/m3
283.15 K, 3539 kPa | 740 kg/m3
283.15 K, 3552 kPa | 740 kg/m3
283.15 K, 3563 kPa | 740.1 kg/m3
283.15 K, 3575 kPa | 740 kg/m3
283.15 K, 3586 kPa | 740.2 kg/m3
283.15 K, 3601 kPa | 740 kg/m3
283.15 K, 3612 kPa | 740.1 kg/m3
